Source: the CheMixHub viscosity set

Experiment: xn = mol fraction of the nth substance listed

NC=O + CN(C)C=O
298.15 K, 101.3 kPa
Conditions | viscosity [mPa·s]
x1 = 0.1 | 1.041
x1 = 0.2 | 1.27
x1 = 0.3 | 1.472
x1 = 0.4 | 1.698
x1 = 0.5 | 1.939
x1 = 0.6 | 2.198
x1 = 0.7 | 2.483
x1 = 0.8 | 2.817
x1 = 0.9 | 3.191

OCCCl + COC(C)=O
viscosity [mPa·s], 101.33 kPa
Conditions | x1 = 0.1021 | x1 = 0.2013 | x1 = 0.3049 | x1 = 0.4029 | x1 = 0.5056 | x1 = 0.6047 | x1 = 0.7046 | x1 = 0.7987 | x1 = 0.9014
298.15 K | 0.438 | 0.501 | 0.587 | 0.691 | 0.844 | 1.039 | 1.324 | 1.688 | 2.234
303.15 K | 0.414 | 0.472 | 0.555 | 0.645 | 0.787 | 0.954 | 1.197 | 1.518 | 1.978
308.15 K | 0.392 | 0.447 | 0.519 | 0.606 | 0.726 | 0.881 | 1.094 | 1.369 | 1.762

OCCCl + CCCCCCO
viscosity [mPa·s], 101.33 kPa
Conditions | x1 = 0.097 | x1 = 0.1953 | x1 = 0.2962 | x1 = 0.3953 | x1 = 0.5314 | x1 = 0.5962 | x1 = 0.7121 | x1 = 0.7968 | x1 = 0.8982
298.15 K | 3.93 | 3.7 | 3.544 | 3.406 | 3.241 | 3.175 | 3.057 | 2.983 | 2.921
303.15 K | 3.33 | 3.18 | 3.068 | 2.909 | 2.78 | 2.718 | 2.615 | 2.551 | 2.529
308.15 K | 2.824 | 2.68 | 2.572 | 2.494 | 2.38 | 2.329 | 2.276 | 2.237 | 2.208

NC=O + CC(O)CO
viscosity [mPa·s], 101 kPa
Conditions | 293.15 K | 298.15 K | 303.15 K | 308.15 K | 313.15 K | 318.15 K
x1 = 0.0567 | 41.37 | 33.51 | 27.96 | 23 | 18.07 | 14.26
x1 = 0.1191 | 36.96 | 29.71 | 24.4 | 19.81 | 15.28 | 11.93
x1 = 0.1736 | – | 29.68 | – | – | – | –
x1 = 0.1881 | 33.2 | 26.49 | 21.59 | 17.16 | 12.95 | 9.801
x1 = 0.2649 | 29.41 | 23.3 | 18.92 | 14.86 | 10.98 | 8.107
x1 = 0.3159 | – | 22.75 | – | – | – | –
x1 = 0.3409 | 25.85 | 20.41 | 16.5 | 12.9 | 9.425 | 6.875
x1 = 0.4166 | – | 18.75 | – | – | – | –
x1 = 0.4478 | 21.21 | 16.73 | 13.52 | 10.58 | 7.704 | 5.602
x1 = 0.5518 | – | 14.59 | – | – | – | –
x1 = 0.5578 | 16.8 | 13.31 | 10.81 | 8.506 | 6.3 | 4.653
x1 = 0.6017 | – | 13.69 | – | – | – | –
x1 = 0.654 | – | 12.31 | – | – | – | –
x1 = 0.6838 | 12.2 | 9.902 | 8.159 | 6.542 | 5.072 | 3.959
x1 = 0.7347 | – | 10.26 | – | – | – | –
x1 = 0.8117 | – | 8.254 | – | – | – | –
x1 = 0.8295 | 7.586 | 6.35 | 5.433 | 4.647 | 3.789 | 3.144
x1 = 0.8808 | – | 6.511 | – | – | – | –
x1 = 0.8818 | 6.101 | 5.206 | 4.59 | 4.003 | 3.386 | 2.902
x1 = 0.9392 | 4.756 | 4.189 | 3.805 | 3.401 | 2.96 | 2.601
x1 = 0.9434 | – | 4.916 | – | – | – | –

CCOC(=O)CCC(=O)OCC + CCCCO
100 kPa
Conditions | viscosity [mPa·s]
303.15 K, x1 = 0.1 | 1.845
308.15 K, x1 = 0.6998 | 1.635
313.15 K, x1 = 0.3 | 1.355
318.15 K, x1 = 0.2001 | 1.245
323.15 K, x1 = 0.8997 | 1.435

CCCCCCCCCCC + CCCCCCC
viscosity [mPa·s]
Conditions | 100 kPa | 101.33 kPa
297.15 K, x2 = 0.5 | – | 0.6901
298.15 K, x2 = 0.1084 | – | 0.9818
298.15 K, x2 = 0.2093 | – | 0.8983
298.15 K, x2 = 0.3019 | – | 0.8173
298.15 K, x2 = 0.4051 | – | 0.7452
298.15 K, x2 = 0.5067 | – | 0.672
298.15 K, x2 = 0.6076 | – | 0.6072
298.15 K, x2 = 0.7041 | – | 0.5479
298.15 K, x2 = 0.8052 | – | 0.4894
298.15 K, x2 = 0.8998 | – | 0.4335
302.98 K, x2 = 0.8 | 0.4886 | –
303.09 K, x2 = 0.5 | 0.6364 | 0.6364
312.85 K, x2 = 0.5 | – | 0.563
323.04 K, x2 = 0.5 | 0.5009 | 0.5009

NC=O + CC(=O)N(C)C
viscosity [mPa·s], 101 kPa
Conditions | 298.15 K | 308.15 K | 318.15 K
x2 = 0.035 | 3.217 | 2.532 | 2.077
x2 = 0.07 | 3.457 | 2.677 | 2.18
x2 = 0.111 | 3.656 | 2.847 | 2.286
x2 = 0.15 | 3.822 | 2.95 | 2.357
x2 = 0.2053 | 3.966 | 3.037 | 2.416
x2 = 0.2414 | 3.971 | 3.057 | 2.42
x2 = 0.3009 | 3.932 | 3.027 | 2.389
x2 = 0.3563 | 3.789 | 2.92 | 2.31
x2 = 0.4177 | 3.537 | 2.741 | 2.16
x2 = 0.458 | 3.338 | 2.594 | 2.076
x2 = 0.5011 | 3.094 | 2.43 | 1.953
x2 = 0.5474 | 2.826 | 2.235 | 1.81
x2 = 0.5912 | – | 2.028 | –
x2 = 0.5972 | 2.53 | – | 1.65
x2 = 0.65 | 2.251 | 1.812 | 1.505
x2 = 0.7092 | 1.916 | 1.579 | 1.316
x2 = 0.75 | 1.72 | 1.441 | 1.205
x2 = 0.7948 | 1.54 | 1.289 | 1.096
x2 = 0.891 | 1.21 | 1.035 | 0.901

OCCCO + CCC(C)=O
Conditions | viscosity [mPa·s]
318.15 K, 100 kPa, x1 = 0.7989 | 6.885

CCOC(=O)CCC(=O)OCC + CC(C)CCO
viscosity [mPa·s], 100 kPa
Conditions | 293.15 K | 298.15 K | 313.15 K
x1 = 0.5 | – | 2.025 | –
x1 = 0.7999 | 2.455 | – | 1.635

CC(=O)[O-].[Na+] + CC(=O)[O-].CC[n+]1ccn(C)c1
Conditions | viscosity [mPa·s]
298.15 K, 101 kPa, x1 = 0.0501 | 160.5
